For assay [1], the target named is cotton aphid choline acetyltransferase (Aphis gossypii, UniProt A0A9P0JF82). Nature of the assay: Inhibition of cotton aphid choline acetyltransferase activity (DTNB colorimetric in vitro assay). In kind it is biochemical. The settings on record: for inhibition at 10 µM: test compound in DMSO at final concentration 10 μM, relative to DMSO control, read-out: Activity of inhibiting choline acetyltransferase activity (inhibition degree (%) at 10 μM addition). The procedure: Selection of a compound which modulates a choline acetyltransferase activity was performed in a system for measuring and evaluating the choline acetyltransferase activity, the activity being modulated by adding a test compound to an in vitro reaction system using the cotton aphid choline acetyltransferase prepared in Example 7.
As for a measurement of the cotton aphid choline acetyltransferase activity, after the enzymatic reaction of choline acetyltransferase using acetyl-CoA and choline as substrates, free CoA formed by choline acetyltransferase reaction was measured using 5,5′-dithio-bis(2-nitrobenzoic acid) (DTNB) reagent. DTNB reacts with free thiol groups in solution to produce 5-thio-2-nitrobenzoic acid (TNB). TNB is yellow and has absorption maximum at 412 nm. The produced TNB was measured […] to calculate choline acetyltransferase activity.
For measuring the activity, the activity of the aphid choline acetyltransferase was measured when a test compound dissolved in DMSO was contained to a final concentration of 10 μM. In addition, the activity of the aphid choline acetyltransferase was measured when DMSO was contained in place of a test compound. Then, a ratio (%) of a measured value of the activity of the aphid choline acetyltransferase when a test compound dissolved in DMSO was contained, relative to a measured value of the activity of aphid choline acetyltransferase when DMSO was contained in place of the test compound was calculated, and a value obtained by subtracting the calculated value from 100% was adopted as an inhibition degree (%). The results in each test compound are shown in Table 4 in Example 9 together with results of Example 9.
The activity of aphid choline acetyltransferase was measured when a test compound dissolved in DMSO was contained to a final concentration of each concentration of 100 μM, 30 μM, 10 μM, 3 μM, 1 μM, 0.3 μM, 0.1 μM or 0.03 μM. IC50 (μM) was calculated from the result of each concentration at each test compound using a concentration-dependent test analyzing software XL fit (manufactured by idbs). The results are shown in Table 5 in Example 10 together with results of Example 9.

Assay [2] relates to Aphis gossypii. As to the kind of experiment: Pesticidal activity test (artificial feed rearing of Aphis gossypii). Type of assay: in vivo. The note with it: 50 ppm test compound in artificial feed; surviving Aphis gossypii counted after six days; significant controlling value (e.g. 30% or more) = pesticidal activity.
[3] abbreviates: concentrations 0.03-100 μM, XLfit, recombinant cotton aphid enzyme, read-out: Activity of inhibiting choline acetyltransferase activity (IC50).
The mark [4] stands for this setting: recombinant cotton aphid enzyme.

Molecules are shown by their SMILES. Read-outs that look alike come from different tables or passages of the source. A value given as a limit tells only on which side of the number the result lay.

Sequence of cotton aphid choline acetyltransferase (A0A9P0JF82 entry or part of it): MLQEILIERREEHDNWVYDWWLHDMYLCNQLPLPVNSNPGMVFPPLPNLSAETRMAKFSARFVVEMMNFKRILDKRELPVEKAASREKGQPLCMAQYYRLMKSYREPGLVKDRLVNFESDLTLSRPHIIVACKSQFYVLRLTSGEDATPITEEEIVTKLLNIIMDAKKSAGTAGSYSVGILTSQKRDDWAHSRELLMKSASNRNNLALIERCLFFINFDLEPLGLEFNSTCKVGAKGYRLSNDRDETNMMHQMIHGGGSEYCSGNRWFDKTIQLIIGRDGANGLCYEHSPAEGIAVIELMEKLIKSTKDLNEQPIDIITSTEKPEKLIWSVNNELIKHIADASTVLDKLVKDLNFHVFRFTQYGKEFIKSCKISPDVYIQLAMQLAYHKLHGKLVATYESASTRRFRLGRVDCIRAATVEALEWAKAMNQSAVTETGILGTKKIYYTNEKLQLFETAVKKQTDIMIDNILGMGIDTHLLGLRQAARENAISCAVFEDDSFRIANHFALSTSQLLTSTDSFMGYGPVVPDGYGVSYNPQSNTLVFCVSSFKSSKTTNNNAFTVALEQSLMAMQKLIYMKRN

Usually IC50 stands for the midpoint of a concentration-inhibition curve. Consider `CN(C)CCC(c1ccc(Cl)cc1)c1ccccn1.O=C(O)/C=C\C(=O)O` (racemic) [DL-Chlorpheniramine Maleate], for which the IC50 in assay [1] (setting [3]) is greater than 100 µM.

Turning to `COc1cc(N)c(Cl)cc1C(=O)NC1CCN(CCCOc2ccc(F)cc2)CC1OC` (stereo not drawn) [Cisapride], in assay [1] (setting [3]), the IC50 was greater than 100 µM.

Broadly, the inhibition is how much of the control response was suppressed. Turning to `ICC1CSc2nncn21` (stereo not drawn) [DD03493], the IC50 in assay [1] (setting [3]) is 23.8 µM. Moreover, in assay [1] (setting [4]), the inhibition at 10 µM was determined as 49%. Besides, in assay [2], the “Result of Example 9: Determination result of pesticidal activity” value is given as “Presence of pesticidal”.

With `O/N=C(\CBr)c1ccccc1` [DD05314], the inhibition at 10 µM in assay [1] (setting [4]) stood at 50%. Moreover, the “Result of Example 9: Determination result of pesticidal activity” value in assay [2] is reported as “Presence of pesticidal”.

Turning to `CN(C)CCC(=O)c1cccc2ccccc12.Cl` [α-NEDA, 2-(α-naphthoyl)ethyl-dimethylammonium chloride], it took 33.5 µM to reach half-maximal inhibition in assay [1] (IC50).

Consider `C[N+](C)(C)CCC(=O)c1cccc2ccccc12.[I-]` [α-NETA, 2-(α-naphthoyl)ethyl-trimethylammonium iodide], for which the half-maximal inhibitory concentration (IC50) in assay [1] came to 1.5 µM.

The values above are taken from patent publication US8476035B2, “Agent that modulates physiological condition of pests, involved in insect choline acetyltransferase activity” (Sumitomo Chemical Company, Limited, priority 2007, dated 2013).
